# Source: US11534457B2, “Use of dextran sulfate” (priority 2017, dated 2022)
# “Also recorded” adds a separate entry of the source.
# Legend:
# human Schwann cells = assay: Gene expression array and pathway analysis, Schwann cells; format: cell-based
# Method: For each cell line, n=8×25 cm^2 culture flasks were set up. Two flasks were harvested for each cell type on the day of treatment (24 hours after seeding). This represents the Day0 time point. From the remaining flasks, three flasks were treated with Control Medium and three were treated with Culture Medium (CM) containing LMW-DS to give a final concentration of 0.01 mg/ml. Cells from the treated flasks were collected after 48 hours. Therefore the collected data represent (a) untreated cells (Day0 Controls and Day2 Controls) and (b) cells treated with LMW-DS for 48 hours (Day2 LMW-DS treated).
# 25 cm^2 flasks were coated by adding 2 ml per flask of a solution of 50 μg/ml poly-d-lysine in Hank's balanced salt solution (HBSS) and incubating overnight at 37° C. in the dark. Flasks were washed with cell culture water and air-dried for 30 min in the dark. Flasks were coated by adding 1 ml per flask of a solution of 25 μg/ml laminin in phosphate-buffered saline (PBS) and incubating for 2 hour at 37° C. in the dark. The laminin flasks were washed with PBS three times before plating cells.
# Schwann cells growth medium was prepared by adding 10% of fetal bovine serum (FBS) to high-glucose DMEM and pre-warmed to 37° C. Cells were thawed in a 37° C. water bath for no longer than 2 min.
# Cells from 12 vials were each gently transferred to a tube containing 10 ml of high-glucose DMEM medium and centrifuged at 400 relative centrifugal field (RCF) for 10 min. Pellet was resuspended in culture medium. The cells from the 12 vials were mixed and distributed equally into the previously coated 25 cm^2 flasks (n=8). Cells were incubated at 37° C. with 5% CO2. Cells were allowed to settle for 24 hours before LMW-DS treatment.
# LMW-DS was provided at a stock concentration of 20 mg/ml and was kept in a temperature monitored refrigerator at 4° C. A fresh […]LMW-DS stock (1.0 mg/ml) was prepared in sterile DMEM-F12. The concentrated drug stock was sterile filtered and added to the respective culture media (19.6 ml CM and 0.4 ml LMW-DS stock solution). The Control was made using 19.6 ml CM and 0.4 ml of DMEM-F12. LMW-DS and CM were added to the respective flasks (5 ml each) to reach the 0.01 mg/ml concentration of LMW-DS in each dish with a total of 10 ml CM each.
# CM was aspirated into a clean and labelled 15 ml Falcon tube. The flasks (without culture medium) were placed into the −80° C. freezer for 30 minutes. The CM in the Falcon tubes were spun at 3000×g for 5 minutes. Supernatant was removed and the small pellet was re-suspended in 2.5 ml Trizol:Water (4:1) solution at room temperature (RT, […]).
# Two aliquots of 1 ml lysate was removed from each sample and 200 μl of chloroform was added to each (0.2 ml of chloroform per 1 ml of TRIzol Reagent used during the cell lysis step) and the tube was shaken vigorously. Samples were stored at RT for 2-3 minutes and subsequently centrifuged at 12,000×g for 15 minutes at 4° C.
# The expression data were downloaded into separate files for each cell line. The ‘Background corrected’ expression is the data from the “gProcessedSignal” of the arrays that is the result of the background signal extracted from the actual signal of the relevant probe. This is the most often used variable in array analysis. The background corrected signal was log 2 transformed for all samples for statistical analysis. To reduce the false discovery rate in the samples, the signals that were below ‘expression level’ were removed. The ‘below expression’ level was set at 5 for the log 2 transformed expression values.
# Based on the expression pattern of the Control probes on each array it was decided to carry out Median Centering for all arrays before analysis to reduce the variability of the results. […]
# [1] = test system: Experimental Autoimmune Encephalomyelitis (EAE); assay: Mouse Experimental Autoimmune Encephalomyelitis (EAE) model, clinical score; format: in vivo, C57B1.6 mice; conditions: 10 mg/kg s.c. three times weekly from day 0; day 13, 14, 16, 17, 19, 21 and 26
# [2] = biological target: protein-protein interaction between oligomeric amyloid-β and PrP^c (Homo sapiens, UniProt P04156); format: binding
substance,measurement,setting,value
low molecular weight dextran sulfate [LMW-DS],"Complex III (cytochrome bc1), mitochondrial oxidative stress pathway","human Schwann cells; 0.01 mg/ml, 48 h",inhibited
same,"TGFβ-induced effect in adhesion of immune cells, activation and aggregation of cells, fibrosis, self-activation of TGFβ","human Schwann cells; 0.01 mg/ml, 48 h",totally abolished
same,"activity and/or levels of glutamate transporters, in particular SLC1A2/3","human Schwann cells; 0.01 mg/ml, 48 h",increased
same,aggregate effect on pathways regulating cell movement and attachment (17 molecules),"human Schwann cells; 0.01 mg/ml, 48 h",cell adhesion would be inhibited while cell movement would be activated
same,cellular attachment from attachment-related molecules (17 differentially expressed),"human Schwann cells; 0.01 mg/ml, 48 h",overall slightly increased attachment
same,"expression of protein complex (CALM, Gβγ, GRM7, PICK1)","human Schwann cells; 0.01 mg/ml, 48 h",induced the expression
same,"number of genes differentially expressed, D0 control vs D2 LMW-DS treated","human Schwann cells; 0.01 mg/ml, 48 h",1244 genes
same,"number of genes differentially expressed, D2 control vs D2 LMW-DS treated","human Schwann cells; 0.01 mg/ml, 48 h",700 genes
same,number of genes: abolished nutrient effect / no effect,"human Schwann cells; 0.01 mg/ml, 48 h",21
same,number of genes: abolished nutrient effect / significant downregulation,"human Schwann cells; 0.01 mg/ml, 48 h",1
same,number of genes: abolished nutrient effect / significant upregulation,"human Schwann cells; 0.01 mg/ml, 48 h",13
same,number of genes: abolished nutrient effect / total,"human Schwann cells; 0.01 mg/ml, 48 h",35
same,number of genes: enhanced response to nutrients / significant downregulation,"human Schwann cells; 0.01 mg/ml, 48 h",122
same,number of genes: enhanced response to nutrients / significant upregulation,"human Schwann cells; 0.01 mg/ml, 48 h",441
same,number of genes: enhanced response to nutrients / total,"human Schwann cells; 0.01 mg/ml, 48 h",563
same,number of genes: new effect induced by LMW-DS / significant downregulation,"human Schwann cells; 0.01 mg/ml, 48 h",352
same,number of genes: new effect induced by LMW-DS / significant upregulation,"human Schwann cells; 0.01 mg/ml, 48 h",74
same,number of genes: new effect induced by LMW-DS / total,"human Schwann cells; 0.01 mg/ml, 48 h",426
same,number of genes: not different from control / significant downregulation,"human Schwann cells; 0.01 mg/ml, 48 h",42
same,number of genes: not different from control / significant upregulation,"human Schwann cells; 0.01 mg/ml, 48 h",373
same,number of genes: not different from control / total,"human Schwann cells; 0.01 mg/ml, 48 h",415
same,number of genes: total / no effect,"human Schwann cells; 0.01 mg/ml, 48 h",21
same,number of genes: total / significant downregulation,"human Schwann cells; 0.01 mg/ml, 48 h",517
same,number of genes: total / significant upregulation,"human Schwann cells; 0.01 mg/ml, 48 h",901
same,number of genes: total / total,"human Schwann cells; 0.01 mg/ml, 48 h",1439
same,upstream regulator ANGPT2: activation z-score,human Schwann cells; D2 LMW-DS treatment,1.283
same,upstream regulator ANGPT2: predicted activation state relative D2 control,human Schwann cells; D2 LMW-DS treatment,Activated
same,upstream regulator BMP2: activation z-score,human Schwann cells; D2 LMW-DS treatment,1.395
same,upstream regulator BMP2: predicted activation state relative D2 control,human Schwann cells; D2 LMW-DS treatment,Activated
same,upstream regulator BMP4: activation z-score,human Schwann cells; D2 LMW-DS treatment,0.927
same,upstream regulator BMP4: predicted activation state relative D2 control,human Schwann cells; D2 LMW-DS treatment,Activated
same,upstream regulator BMP7: activation z-score,human Schwann cells; D2 LMW-DS treatment,1.86
same,upstream regulator BMP7: predicted activation state relative D2 control,human Schwann cells; D2 LMW-DS treatment,Activated
same,upstream regulator EGF: activation z-score,human Schwann cells; D2 LMW-DS treatment,2.059
same,upstream regulator EGF: predicted activation state relative D2 control,human Schwann cells; D2 LMW-DS treatment,Activated
same,upstream regulator FGF2: activation z-score,human Schwann cells; D2 LMW-DS treatment,2.37
same,upstream regulator FGF2: predicted activation state relative D2 control,human Schwann cells; D2 LMW-DS treatment,Activated
same,upstream regulator GDF2: activation z-score,human Schwann cells; D2 LMW-DS treatment,2.561
same,upstream regulator GDF2: predicted activation state relative D2 control,human Schwann cells; D2 LMW-DS treatment,Activated
same,upstream regulator HGF: activation z-score,human Schwann cells; D2 LMW-DS treatment,1.432
same,upstream regulator HGF: predicted activation state relative D2 control,human Schwann cells; D2 LMW-DS treatment,Activated
same,upstream regulator IGF1: activation z-score,human Schwann cells; D2 LMW-DS treatment,1.332
same,upstream regulator IGF1: predicted activation state relative D2 control,human Schwann cells; D2 LMW-DS treatment,Activated
same,upstream regulator NRG1: activation z-score,human Schwann cells; D2 LMW-DS treatment,1.768
same,upstream regulator NRG1: predicted activation state relative D2 control,human Schwann cells; D2 LMW-DS treatment,Activated
same,upstream regulator NRTN: activation z-score,human Schwann cells; D2 LMW-DS treatment,0.958
same,upstream regulator NRTN: predicted activation state relative D2 control,human Schwann cells; D2 LMW-DS treatment,Activated
same,upstream regulator PGF: activation z-score,human Schwann cells; D2 LMW-DS treatment,0.254
same,upstream regulator PGF: predicted activation state relative D2 control,human Schwann cells; D2 LMW-DS treatment,Activated
same,upstream regulator TGFβ1: activation z-score,human Schwann cells; D2 LMW-DS treatment,1.05
same,upstream regulator TGFβ1: predicted activation state relative D2 control,human Schwann cells; D2 LMW-DS treatment,Less inhibited
same,upstream regulator VEGFA: activation z-score,human Schwann cells; D2 LMW-DS treatment,3.4
same,upstream regulator VEGFA: predicted activation state relative D2 control,human Schwann cells; D2 LMW-DS treatment,Activated
same,upstream regulator WISP2: activation z-score,human Schwann cells; D2 LMW-DS treatment,-0.896
same,upstream regulator WISP2: predicted activation state relative D2 control,human Schwann cells; D2 LMW-DS treatment,Less inhibited
same,mean EAE score vs vehicle control,[1],significantly (#) lower mean score; also recorded: significantly lower mean score
same,Competable binding (%),[2],85 ± 4%
same,Hill coefficient,[2],1.00 ± 0.21
same,IC50,[2],0.42 ± 0.16 µg/mL
same,competition for the protein-protein interaction (in words),[2],in a concentration dependent manner as did LMW-DS
